Data published in US10815274B2, “Immunogenic WT-1 peptides and methods of use thereof” (Memorial Sloan Kettering Cancer Center, priority 2012, dated 2020).
Where a SMILES comes first, the peptide text is derived from it.

Assays:
[1] = test system: WT1 peptide loaded autologous APC; assay: Cr51 release assay, cytotoxic CTL response vs peptide loaded autologous APC; assay type: cell-based, human; settings: 50:1 E:T
WT1- leukemia = assay: Cr51 release assay, cytotoxic CTL response vs WT1- leukemia; assay type: cell-based, human; settings: 50:1 E:T
Excerpt: (§1) Twenty-four primary leukemic cells and 1 leukemic cell line were characterized for their expression of WT1 by intracellular FACS staining using murine anti-human WT1 monoclonal antibodies (Neomarkers, Fremont, Calif.) as previously described (32,38) The WT1+ leukemias included blast cells from 11 primary AMLs, 3 primary ALLs and 1B-cell precursor ALL cell line. Ten WT1-leukemias, were used as controls, and included 3 B-cell precursor ALLs and 7 AMLs.

[2] = test system: WT1+ allo APC with restricting HLA allele loaded with WT1 peptide; assay: Cr51 release assay, cytotoxic CTL response vs peptide loaded allogeneic APC sharing restricting HLA allele (HLA restriction); settings: for Cytotoxic CTL response, % vs WT1+ allo APC with restricting HLA allele loaded with WT1 peptide: 50:1 E:T
WT1- autologous APC = assay: Cr51 release assay, cytotoxic CTL response vs unmodified autologous APC; assay type: cell-based, human; settings: 50:1 E:T
[3] = test system: WT1- allo APC with restricting HLA allele; assay: Cr51 release assay, cytotoxic CTL response vs unloaded allogeneic APC sharing restricting HLA allele; assay type: cell-based, human; settings: 50:1 E:T
WT1+ leukemia = assay: Cr51 release assay, cytotoxic CTL response vs WT1+ leukemia expressing restricting HLA allele; assay type: cell-based, human; settings: 50:1 E:T
Excerpt: as §1
PHA blasts were not available from every patient that provided leukemia blasts for this study.

Compound: CC(C)C[C@H](NC(=O)[C@H](C)NC(=O)[C@H](CC(N)=O)NC(=O)[C@H](CC(C)C)NC(=O)[C@H](CC(=O)O)NC(=O)[C@@H](N)CCCNC(=N)N)C(=O)N[C@@H](CC(C)C)C(=O)N1CCC[C@H]1C(=O)N[C@@H](C)C(=O)N[C@H](C(=O)O)C(C)C [SEQ ID NO: 152] (H-RDLNALLPAV-OH; N-terminus and C-terminus assumed)
- Cytotoxic CTL response, % vs WT1 peptide loaded autologous APC ([1]; HLA allele A0201): 51%
- Cytotoxic CTL response, % vs WT1 peptide loaded autologous APC ([1]; HLA allele B5701): 44%
- Cytotoxic CTL response, % vs WT1- leukemia (WT1- leukemia; HLA allele A0201): 0%
- Cytotoxic CTL response, % vs WT1+ allo APC with restricting HLA allele loaded with WT1 peptide ([2]; HLA allele A0201): 31%
- Cytotoxic CTL response, % vs WT1+ allo APC with restricting HLA allele loaded with WT1 peptide ([2]; HLA allele B5701): 22%
- Cytotoxic CTL response, % vs WT1- autologous APC (WT1- autologous APC; HLA allele A0201): 2%
- Cytotoxic CTL response, % vs WT1- autologous APC (WT1- autologous APC; HLA allele B5701): 3%
- Cytotoxic CTL response, % vs WT1- allo APC with restricting HLA allele ([3]; HLA allele A0201): 4%
- Cytotoxic CTL response, % vs WT1- allo APC with restricting HLA allele ([3]; HLA allele B5701): 1%
- Cytotoxic CTL response, % vs WT1+ leukemia (WT1+ leukemia; HLA allele A0201): 9%

Compound: CC(C)C[C@H](N)C(=O)N[C@@H](CC(=O)O)C(=O)N[C@@H](Cc1ccccc1)C(=O)N[C@@H](C)C(=O)N1CCC[C@H]1C(=O)N1CCC[C@H]1C(=O)NCC(=O)N[C@@H](C)C(=O)N[C@@H](CO)C(=O)O [SEQ ID NO: 155] (H-LDFAPPGAS-OH; N-terminus and C-terminus assumed)
- Cytotoxic CTL response, % vs WT1 peptide loaded autologous APC ([1]; HLA allele A0201): 73%
- Cytotoxic CTL response, % vs WT1- leukemia (WT1- leukemia; HLA allele A0201): 0%
- Cytotoxicity of T-cells restricted by HLA A0201 against loaded targets [2]: able to lyse
- Cytotoxic CTL response, % vs WT1+ allo APC with restricting HLA allele loaded with WT1 peptide ([2]; HLA allele A0201): 62%
- Cytotoxic CTL response, % vs WT1- autologous APC (WT1- autologous APC; HLA allele A0201): 0%
- Cytotoxic CTL response, % vs WT1- allo APC with restricting HLA allele ([3]; HLA allele A0201): 1%
- Cytotoxic CTL response, % vs WT1+ leukemia (WT1+ leukemia; HLA allele A0201): 40%

Compound: CC(C)C[C@H](N)C(=O)N[C@@H](CC(=O)O)C(=O)N[C@@H](Cc1ccccc1)C(=O)N[C@@H](C)C(=O)N1CCC[C@H]1C(=O)N1CCC[C@H]1C(=O)NCC(=O)N[C@@H](C)C(=O)N[C@@H](CO)C(=O)N[C@@H](C)C(=O)N[C@@H](Cc1ccc(O)cc1)C(=O)O [SEQ ID NO: 156] (H-LDFAPPGASAY-OH; N-terminus and C-terminus assumed)
- Cytotoxic CTL response, % vs WT1 peptide loaded autologous APC ([1]; HLA allele DRB10402): 73%
- Cytotoxic CTL response, % vs WT1- leukemia (WT1- leukemia; HLA allele DRB10402): 0%
- Cytotoxicity of T-cells restricted by HLA A0201 against loaded targets [2]: able to lyse
- Cytotoxic CTL response, % vs WT1+ allo APC with restricting HLA allele loaded with WT1 peptide ([2]; HLA allele DRB10402): 71%
- Cytotoxicity of class II HLA-restricted T-cells against loaded targets ([2]; targets sharing the alleles DRB1 0402 and DQB1 0302): selectively cytotoxic
- Cytotoxic CTL response, % vs WT1- autologous APC (WT1- autologous APC; HLA allele DRB10402): 0%
- Cytotoxic CTL response, % vs WT1- allo APC with restricting HLA allele ([3]; HLA allele DRB10402): 1%
- Cytotoxic CTL response, % vs WT1+ leukemia (WT1+ leukemia; HLA allele DRB10402): 40%

Compound: C[C@H](NC(=O)[C@@H]1CCCN1)C(=O)N1CCC[C@H]1C(=O)N1CCC[C@H]1C(=O)N1CCC[C@H]1C(=O)N1CCC[C@H]1C(=O)N1CCC[C@H]1C(=O)N1CCC[C@H]1C(=O)N1CCC[C@H]1C(=O)O [SEQ ID NO: 158] (H-PAPPPPPPP-OH; N-terminus and C-terminus assumed)
- Cytotoxic CTL response, % vs WT1 peptide loaded autologous APC ([1]; HLA allele A0201): 40%
- Cytotoxic CTL response, % vs WT1- leukemia (WT1- leukemia; HLA allele A0201): 0%
- Cytotoxic CTL response, % vs WT1+ allo APC with restricting HLA allele loaded with WT1 peptide ([2]; HLA allele A0201): 18%
- Cytotoxic CTL response, % vs WT1- autologous APC (WT1- autologous APC; HLA allele A0201): 2%
- Cytotoxic CTL response, % vs WT1- allo APC with restricting HLA allele ([3]; HLA allele A0201): 1%
- Cytotoxic CTL response, % vs WT1+ leukemia (WT1+ leukemia; HLA allele A0201): 0%

Compound: CSCC[C@H](NC(=O)[C@@H]1CCCN1C(=O)[C@H](CC(=O)O)NC(=O)[C@H](CCC(=O)O)NC(=O)[C@H](Cc1c[nH]cn1)NC(=O)[C@H](CCCCN)NC(=O)[C@H](Cc1ccccc1)NC(=O)[C@H](CO)NC(=O)[C@@H](N)Cc1c[nH]cn1)C(=O)O [SEQ ID NO: 165] (H-HSFKHEDPM-OH; N-terminus and C-terminus assumed)
- Cytotoxic CTL response, % vs WT1 peptide loaded autologous APC ([1]; HLA allele B3501): 50%
- Cytotoxic CTL response, % vs WT1- leukemia (WT1- leukemia; HLA allele B3501): 5%
- Cytotoxic CTL response, % vs WT1+ allo APC with restricting HLA allele loaded with WT1 peptide ([2]; HLA allele B3501): 63%
- Cytotoxic activity against panel of allogeneic CAMs loaded with peptide, each sharing one HLA allele ([2]; peptide loaded autologous targets and targets expressing HLA-B3501, not targets sharing other alleles): selectively lysed
- Cytotoxic CTL response, % vs WT1- autologous APC (WT1- autologous APC; HLA allele B3501): 0%
- Cytotoxic CTL response, % vs WT1- allo APC with restricting HLA allele ([3]; HLA allele B3501): 3%
- Cytotoxic CTL response, % vs WT1+ leukemia (WT1+ leukemia; HLA allele B3501): 45%
